B1: VEGF-C: vascular endothelial growth factor C; media containing VEGF-C used as positive control on HDLEC (protein, listed as Homo sapiens)
chain: MHLLGFFSVACSLLAAALLPGPREAPAAAAAFESGLDLSDAEPDAGEATAYASKDLEEQLRSVSSVDELMTVLYPEYWKMYKCQLRKGGWQHNREQANLNSRTEETIKFAAAHYNTEILKSIDNEWRKTQCMPREVCIDVGKEFGVATNTFFKPPCVSVYRCGGCCNSEGLQCMNTSTSYLSKTLFEITVPLSQGPKPVTISFANHTSCRCMSKLDVYRQVHSIIRRSLPATLPQCQAANKTCPTNYMWNNHICRCLAQEDFMFSSDAGDDSTDGFHDICGPNKELDEETCQCVCRAGLRPASCGPHKELDRNSCQCVCKNKLFPSQCGANREFDENTCQCVCKRTCPRNQPLNPGKCACECTESPQKCLLKGKKFHHQTCSCYRRPCTNRQKACEPGFSYSEEVCRCVPSYWKRPQMS

What was measured:
C57B1/6 female mice [1] = assay: Evaluation of dermis fibrosis, Masson's trichrome coloration; type: in vivo, mouse; details: lymphedema limb skin
Experimental: Dermis fibrosis was evaluated with Masson's trichrome coloration (MST-100T, Cliniscience). Skin sections were deparraffinized and tissue were stained according the manufacturer's recommendations. Images were acquired on a nanozoomer slide scanner. Dermis size quantification was performed using at least 10 measurements of the length between epidermis and hypodermis per field.

C57B1/6 female mice [2] = assay: Mouse model of secondary lymphedema, limb size measured using caliper; type: in vivo; details: LV-apelin treated mice submitted to L-NAME treatment
Experimental: Mouse procedures were performed in accordance with EU and national regulation. C57B1/6 mouse were provided by Envigo. All experiments have been approved by the local branch Inserm Rangueil-Purpan of the Midi-Pyrénées ethics committee. Secondary lymphedema was established as previously described (Morfoisse et al. 2018). Briefly, lymphedema was established in the left upper limb of 6 weeks-old C57B1/6 female mice. A partial mastectomy of the second mammary gland is performed in association with axillary and brachial lymphadenectomy. Limb size was measured over time in the axillary region using caliper. Mice sustained edema for a period of 2 weeks. The day of the surgery, PBS or apelin lentiviral vector were injected in intradermic in the lymphedema limb (3 injections of 4 μL). […] For L-NAME (N^G-nitro-L-arginine methyl ester) (Sigma) treatment, L-NAME was resuspended in water (1 mg/ml) and mice were allowed to drink freely for 7 days.

[3] = system: afferent collecting lymphatic vessels to the popliteal lymph node; assay: Collecting vessel contraction measures (intravital imaging); type: in vivo, mouse; details: L-NAME in drinking water 7 days
Experimental: Vessel contraction measurement of afferent collecting lymphatic vessels to the popliteal lymph node (PLN) were performed as described previously (Liao S. et al.). Briefly mice were anesthetized with an intraperitoneal injection of ketamine (100 mg/Kg) and xylazine (10 mg/kg). 6 μL of FITC-Dextran was injected into the footpad of the lower right limb. The skin is carefully removed to expose afferent collecting lymphatic vessels to the PLN. Mouse is then placed into a petri dish and onto the stage of an inverted microscope (Leica, DMi8). 4 videos of 90 sec were acquired per mice and the number of contraction and dilatation (difference between maximum and minimum diameter) was analysed using Fiji software. To assess the effect of Apelin, lentiviral vector was injected into the derm in the lower right limb 7 days before the experiment. For L-NAME study, mice were allowed to drink freely for 7 days.

C57B1/6 female mice [4] = assay: Lymphangiography with FITC-Dextran in lymphedema mouse model; type: in vivo; details: two weeks after surgery
Experimental: Two weeks after surgery, mice were anesthetized with an intraperitoneal injection of ketamine (100 mg/kg) (Zoletil 100, Virbac) and xylazine (10 mg/kg) (Rompun 2%, Bayer). FITC-Dextran ([…], 2 mg/mL, Sigma) was injected into the footpad of lymphedema and control limb. The fluorescent molecule was taken up by the lymphatics and excluded from the blood vessels. After 5 min, the skin was analyzed under the modular stereo microscope discovery. V12 stereo (Zeiss).

C57B1/6 female mice [5] = assay: Histology of skin sections, Lyve1 and CD31 immunostaining; type: in vivo, mouse; details: lymphedema limb skin
Experimental: Skin of lymphedema and control limb were collected 2 weeks after surgery and fixed in 10% neutral buffered formalin O/N at 4° C. Tissue are then embedded in paraffin and sectioned on a microtome. 5 μm sections were cut and placed on Superfrost Plus slides. Tissue were deparaffinized, rehydrated and antigen unmasking was realized with pH 9 Tris solution (H-3301, Vector Laboratories) 5 min three times in a microwave. After cooling, slides were washed in PBS and then blocked with 5% BSA solution at room temperature in humid chamber. Sections were incubated with primary antibodies O/N at 4° C. (Goat anti-murine Lyvel, R&D AF2125; rabbit anti-CD31, abcam Ab28364) and washed three times in PBS. Sections were incubated with the corresponding secondary antibodies conjugated to Alexa-488 or -594 for 1h at room temperature au 1/400 dilution. DNA was stained with DAPI. Slides were mounted with Dako Fluorescence Mounting Medium (S3023). Images were acquired a fluorescent inverted microscope (Leica, DMi8). Images were analysed with Fiji software.

[6] = system: Human dermal lymphatic endothelial cells (HDLEC); assay: Bulk RNA-sequencing, differential gene expression and GO analysis; type: cell-based; details: compared to WT
Experimental: Human dermal lymphatic endothelial cells (HDLEC) (single donor, juvenile foreskin, Promocell, C-12216, >95% of the cells are CD31 positive and podoplanin positive) were cultured in Endothelial Cell Media MV2 (EGM-MV2, Promocell, C-22121). NIH3T3 were cultured in Dulbecco's modified Eagle's medium (DMEM, Sigma, D6429) supplemented with 10% fetal bovine serum (FBS, Gibco, 10270-06) and 1% penicillin-streptomycin. Endothelial cells were used at passage 3-6 and human fibroblasts were used at passage 4-7. Cells were cultured at 37° C. in a 5% CO2 incubator. Culture medium was changed 3 times a week, and the cells were passaged ⅓. For collecting conditioned media, NIH3T3 were grown in 10 cm dishes, after reaching confluence, medium was removed and the cells were washed once with PBS. NIH3T3 were cultured overnight in 5 mL reduced serum medium optiMEM (Gibco), the medium was then collected and used for experiments. HDLEC were treated with 50% conditioned media/50% MV2-05% FBS. Total RNA from HDLEC transduced or not with Apelin Lentivector were prepared using the RNeasy mini kit (Qiagen 74106). Total RNA were then subjected to ribosomal-RNA depleted RNA sequencing (RNA-Seq) protocol performed by Genewiz company using Illumina HiSeq, PE 2×150 configuration. Sequence reads were trimmed to remove possible adapter sequences and nucleotides with poor quality using Trimmomatic v.0.36. The trimmed reads were mapped to the Homo sapiens GRCh38 reference genome available on ENSEMBL using the STAR aligner v.2.5.2b. The STAR aligner is a splice aligner that detects splice junctions and incorporates them to help align the entire read sequences. BAM files were generated as a result of this step. Unique gene hit counts were calculated by using feature Counts from the Subread package v.1.5.2. The hit counts were summarized and reported using the gene_id feature in annotation file. Only unique reads that fell within exon regions were counted. Distribution of read counts in libraries were examined before and after normalization. The original read counts were normalized to adjust for various factors such as variations of sequencing yield between samples. These normalized read counts were used to accurately determine differentially expressed genes. Data quality assessments were performed to detect any samples that are not representative of their group, and thus, may affect the quality of the analysis. The overall similarity among samples were assessed by the Euclidean distance between samples. This method was used to examine which samples are similar/different to each other and if they fit to the expectation from the experiment design. The shorter the distance, the more closely related the samples are. Samples were then clustered by using the distance. A principal component analysis was also performed to reveal the similarity between samples based on the distance matrix. After extraction of gene hit counts, the gene hit counts table was used for downstream differential expression analysis. Using DESeq2, a comparison of gene expression between Apelin transduced LEC against non-transduced LEC was performed. The Wald test was used to generate p-values and log2 fold changes. […] The global transcriptional change across the two groups compared was visualized by a volcano plot. Each data point in the volcano plot represents a gene. The log2 fold change of each gene is represented on the x-axis and the log10 of its adjusted p-value is on the y-axis.

[7] = system: Human dermal lymphatic endothelial cells (HDLEC); assay: Immunoblotting of AKT, ERK and eNOS phosphorylation; type: cell-based; details: conditioned media
Experimental: Human dermal lymphatic endothelial cells (HDLEC) (single donor, juvenile foreskin, Promocell, C-12216, >95% of the cells are CD31 positive and podoplanin positive) were cultured in Endothelial Cell Media MV2 (EGM-MV2, Promocell, C-22121). NIH3T3 were cultured in Dulbecco's modified Eagle's medium (DMEM, Sigma, D6429) supplemented with 10% fetal bovine serum (FBS, Gibco, 10270-06) and 1% penicillin-streptomycin. Endothelial cells were used at passage 3-6 and human fibroblasts were used at passage 4-7. Cells were cultured at 37° C. in a 5% CO2 incubator. Culture medium was changed 3 times a week, and the cells were passaged ⅓. For collecting conditioned media, NIH3T3 were grown in 10 cm dishes, after reaching confluence, medium was removed and the cells were washed once with PBS. NIH3T3 were cultured overnight in 5 mL reduced serum medium optiMEM (Gibco), the medium was then collected and used for experiments. HDLEC were treated with 50% conditioned media/50% MV2-05% FBS.
Cells were scrapped and lysed in RIPA buffer (RIPA 2X, Biotech RB4476) supplemented with phosphatase inhibitor (PhosSTOP Easypack, Roche0490687001) and protease inhibitors (protease inhibitor cocktail, Sigma Aldrich). Lysates were centrifuged at 13500 g for 10 minutes at 4° C. Supernatants were then collected and mix with Laemmli buffer containing dithiothreitol (DTT 1 mM). Protein were resolved on 4-15% SDS-PAGE gels and transferred to nitrocellulose membrane (Trans-Blot Turbo RTA transfer kit, #1704271, Biorad). Membranes were blocked for 1h at room temperature in 5% BSA-TBS-T (TBS-0.1% Tween 20) and probed with primary antibody overnight at 4° C. Antibody used are the following: Phospho AKT: AKT-p ser473 (CS #4060S), AKT: santa cruz H136 (S8312), Phospho ERK: ERK1/2-p (MAPKp42/44) (Thr202/Thr204) (cell signalling #9106), ERK ERK1/2-(MAPKp42/44) (Thr202/Thr204) (cell signalling #9102), Phospho eNOS (cell signalling #9571S), eNOS (cell signalling #5880S), E2F8 (Abcam, AB109596), VEGFR3 (RID system AF349), Phospho-VEGFR3 (Affinity AF3676), CCBE1 (Sigma SAB1402017).
After three washes in TBS-T, membranes were probed with HRP-conjugated secondary antibodies at 1/10000 dilution. Signals were visualized with chemiluminescence detection reagent (Sigma) on a Chemidoc (Biorad) digital acquisition system.

| Molecule | fibrosis (C57B1/6 female mice [1]) | effect on apelin benefit on lymphedema (limb diameter) (C57B1/6 female mice [2]) | effect on apelin-stimulated collector dilatation [3] | lymphatic vessel morphology / remodelling (lymphangiography) (C57B1/6 female mice [4]) | lymphatic vessel dilatation (vessel area / diameter) (C57B1/6 female mice [5]) | expression of genes related to VEGFC maturation (ADAMTS2, CCBE1) [6] | eNOS phosphorylation ([7]; HDLEC) | AKT activation (phosphorylation) ([7]; 24 h time course) | ERK activation ([7]; 24 h time course) |
| --- | --- | --- | --- | --- | --- | --- | --- | --- | --- |
| COC(=O)[C@@H](N)CCCNC(=N)N[N+](=O)[O-] [L-NAME, N^G-nitro-L-arginine methyl ester] | no effect on fibrosis | reversed the beneficial effect of apelin on lymphedema | completely reversed | reverse apelin effect on lymphatic vascular network | inhibited |  |  |  |  |
| B1 |  |  |  |  |  | improved | observed | strong activation | strong activation |

Reference: patent publication US20260041732A1, “USE OF APELIN FOR THE TREATMENT OF LYMPHEDEMA” (INSTITUT NATIONAL DE LA SANTE ET DE LA RECHERCHE MEDICALE, priority 2022, published 2026)
